The nature of series [1]: Evaluation of total body clearance (CLtot), intravenous administration. In kind it is in vivo, Sprague-Dawley (SD). The settings on record: rat (SD), intravenous administration 0.5-10 mg/kg; CLtot = dose/AUC. Put shortly:
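Plasma levels quantified by LC/MS/MS after intravenous tail-vein dosing (0.5-10 mg/kg, compound-dependent; n=2-3). AUC from pharmacokinetic analysis; total clearance calculated as dose/AUC.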

Series [2] addresses HIV-1 PR (Human immunodeficiency virus type 1 group M subtype B, UniProt P04585). The series is described as follows: HIV-protease inhibitory activity assay (FRET peptide substrate). The series is classed as biochemical. The settings on record: Test Example 1. Put shortly:
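Inhibition of HIV-1 protease was measured as loss of fluorescence dequenching of a HiLyte Fluor 488/QXL 520 peptide at 2 μmol/L, pH 4.8, room temperature, 60 minute reaction. IC50 was derived by nonlinear four-parameter fitting.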

Series [3] is described as follows: Protein binding test (equilibrium dialysis, unbound ratio fu in serum). In kind it is in vitro ADME. The settings on record: rat serum, equilibrium dialysis 24 hours, 37° C., 2 μg/mL. Put shortly: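 Compound at 2 μg/mL in serum was dialysed against PBS for 24 hours at 37° C. Both sides were quantified by LC/MS/MS, and fu was taken as the PBS concentration divided by the serum concentration.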

Compound `COc1ccc(S(=O)(=O)N(CC(C)C)CC(O)C(Cc2ccc(N3CC(Oc4ccccc4-c4sc5c(c4C(=O)O)CC(C)(C)CC5)C3)cc2)NC(=O)OC2COC3(C)OCCC23)cc1` (stereo not drawn) [Compound I-357] showed a rat_CLt in series [1] of 1.55 mL/min/kg. The compound further returned a concentration for half-maximal inhibition (IC50) in series [2] of 4.41 nM. The rat_fu in series [3] was less than 0.1%.

`COc1ccc(S(=O)(=O)N(CC(C)C)CC(O)C(Cc2ccc(NCC3=C(c4sc5c(c4C(=O)O)CC(C)(C)CC5)CCOC3)cc2)NC(=O)OC2COC3(C)OCCC23)cc1` (stereo not drawn) [Compound I-362] showed a rat_CLt in series [1] of 4.62 mL/min/kg. Also, the 50% inhibitory concentration (IC50) in series [2] came out at 3.07 nM. Besides, the rat_fu in series [3] is listed as less than 0.1%.

`COc1ccc(S(=O)(=O)N(CC(C)C)CC(O)C(Cc2ccc(N(C)CC3=C(c4sc5c(c4C(=O)O)CC(C)(C)CC5)CCOC3)cc2)NC(=O)OC2COC3(C)OCCC23)cc1` (stereo not drawn) [Compound I-363]: the rat_CLt in series [1] was 3.39 mL/min/kg. Moreover, in series [2], the concentration for half-maximal inhibition (IC50) amounted to 3.36 nM. Besides, in series [3], the rat_fu is reported as less than 0.1%.

`COc1ccc(S(=O)(=O)N(CC2CCCC2)CC(O)C(Cc2ccc(OCc3cc(C(F)(F)F)ccc3-n3nc4c(c3C(=O)O)CC(C)(C)CC4)cc2)NC(=O)OC2COC3(C)OCCC23)cc1` (stereo not drawn) [Compound I-365] showed a rat_CLt in series [1] of 0.119 mL/min/kg. The compound also came in with an IC50 in series [2] of 3.2 nM. The rat_fu in series [3] is less than 0.1%.

In the case of `COc1ccc(S(=O)(=O)N(CC(C)C)CC(O)C(Cc2ccc(N(C)CC3CCCCC3c3sc4c(c3C(=O)O)CC(C)(C)CC4)cc2)NC(=O)OC2COC3(C)OCCC23)cc1` (stereo not drawn) [Compound I-374], the rat_CLt in series [1] was 3.94 mL/min/kg. The compound also registered an IC50 in series [2] of 4.35 nM. The rat_fu in series [3] is given as less than 0.1%.

`COc1ccc(S(=O)(=O)N(CC(C)C)CC(O)C(Cc2ccc(CN(C)c3ccc(-c4sc5c(c4C(=O)O)CC(C)(C)CC5)c(C)c3)cc2)NC(=O)OC2COC3(C)OCCC23)cc1` (stereo not drawn) [Compound I-376] showed a rat_CLt in series [1] of 0.485 mL/min/kg. In addition, in series [2], the IC50 came out at 9.86 nM. Also, the rat_fu in series [3] is reported as less than 0.1%.

Turning to `COc1ccc(S(=O)(=O)N(CC(C)C)CC(O)C(Cc2ccc(NCc3cc(C(F)(F)F)ccc3-n3nc4c(c3C(=O)O)CC(C)(C)CC4)cc2)NC(=O)OC2COC3(C)OCCC23)cc1` (stereo not drawn) [Compound I-378], the rat_CLt in series [1] is recorded as 0.173 mL/min/kg. In series [2], the IC50 was found to be 4.1 nM. In series [3], the rat_fu is on record as less than 0.1%.

Compound `COc1ccc(S(=O)(=O)N(CC(C)C)CC(O)C(Cc2ccc(N(C)Cc3cc(C(F)(F)F)ccc3-n3nc4c(c3C(=O)O)CC(C)(C)CC4)cc2)NC(=O)OC2COC3(C)OCCC23)cc1` (stereo not drawn) [Compound I-379] yielded a rat_CLt in series [1] of 0.173 mL/min/kg. This compound also registered a half-inhibitory concentration (IC50) in series [2] of 4.42 nM. For the same compound, in series [3], the rat_fu is reported as less than 0.1%.

`COc1ccc(S(=O)(=O)N(CC(C)C)CC(O)C(Cc2ccc(SCc3ccccc3-c3sc4c(c3C(=O)O)CC(C)(C)CC4)cc2)NC(=O)OC2COC3(C)OCCC23)cc1` (stereo not drawn) [Compound I-380] showed a rat_CLt in series [1] of 0.702 mL/min/kg. The compound also returned an IC50 in series [2] of 5.51 nM. Besides, the rat_fu in series [3] is on record as less than 0.1%.

Turning to `COc1ccc(S(=O)(=O)N(CC(C)C)CC(O)C(Cc2ccc(NCc3cnc4ccccc4c3-c3sc4c(c3C(=O)O)CC(C)(C)CC4)cc2)NC(=O)OC2COC3(C)OCCC23)cc1` (stereo not drawn) [Compound I-384], in series [1], the rat_CLt is on record as 0.253 mL/min/kg. Also, the concentration for half-maximal inhibition (IC50) in series [2] came out at 6.62 nM. The rat_fu in series [3] is less than 0.1%.

On to `COc1ccc(S(=O)(=O)N(CC(C)C)CC(O)C(Cc2ccc(CN3CCc4c(-c5sc6c(c5C(=O)O)CC(C)(C)CC6)cccc43)cc2)NC(=O)OC2COC3(C)OCCC23)cc1` (stereo not drawn) [Compound I-386], for which the rat_CLt in series [1] came out at 4.96 mL/min/kg. This compound also displayed an IC50 in series [2] of 5.89 nM. In addition, in series [3], the rat_fu is less than 0.1%.

In the case of `COc1ccc(S(=O)(=O)N(CC(C)C)CC(O)C(Cc2ccc(CN3CCc4ccc(-c5sc6c(c5C(=O)O)CC(C)(C)CC6)cc4C3)cc2)NC(=O)OC2COC3(C)OCCC23)cc1` (stereo not drawn) [Compound I-389], the rat_CLt in series [1] is reported as 14 mL/min/kg. Also, the IC50 in series [2] was determined as 1.79 nM. The rat_fu in series [3] is less than 0.1%.

Compound `COc1ccc(S(=O)(=O)N(CC(C)C)CC(O)C(Cc2ccc(N(C)C3CN(c4ccc(-c5sc6c(c5C(=O)O)CC(C)(C)CC6)cc4)C3)cc2)NC(=O)OC2COC3(C)OCCC23)cc1` (stereo not drawn) [Compound I-391] yielded a rat_CLt in series [1] of 10.3 mL/min/kg. In addition, the IC50 in series [2] came to 3.94 nM. Also, the rat_fu in series [3] is recorded as less than 0.1%.

Regarding `COc1ccc(S(=O)(=O)N(CC(C)C)C[C@@H](O)[C@H](Cc2ccc(NCc3ccccc3C(=O)Nc3sc4c(c3C(=O)O)CC(C)(C)CC4)cc2)NC(=O)O[C@H]2CO[C@@]3(C)OCC[C@@H]23)cc1` [Compound I-396], the rat_CLt in series [1] amounted to 0.0572 mL/min/kg. This compound also displayed an IC50 in series [2] of 2.76 nM. Moreover, the rat_fu in series [3] is less than 0.1%.

`COc1ccc(S(=O)(=O)N(CC(C)C)CC(O)C(Cc2ccc(N(C)C3Cc4cccc(-c5sc6c(c5C(=O)O)CC(C)(C)CC6)c4C3)cc2)NC(=O)OC2COC3(C)OCCC23)cc1` (stereo not drawn) [Compound I-405] returned a rat_CLt in series [1] of 3.27 mL/min/kg. Also, the half-inhibitory concentration (IC50) in series [2] was determined as 2.42 nM. For the same compound, the rat_fu in series [3] is less than 0.1%.

In turn, `COc1ccc(S(=O)(=O)N(CC(C)C)CC(O)C(Cc2ccc(N3CC(C)C(Oc4ccccc4-c4sc5c(c4C(=O)O)CC(C)(C)CC5)C3)cc2)NC(=O)OC2COC3(C)OCCC23)cc1` (stereo not drawn) [Compound I-406] returned a rat_CLt in series [1] of 4.61 mL/min/kg. This compound also had a concentration for half-maximal inhibition (IC50) in series [2] of 1.89 nM. Further, the rat_fu in series [3] is listed as less than 0.1%.

`COc1ccc(S(=O)(=O)N(CC(C)C)CC(O)C(Cc2ccc(NCc3ncccc3-c3ccc(-c4sc5c(c4C(=O)O)CC(C)(C)CC5)cc3)cc2)NC(=O)OC2COC3(C)OCCC23)cc1` (stereo not drawn) [Compound I-415] registered a rat_CLt in series [1] of 0.66 mL/min/kg. Further, in series [2], 2.55 nM corresponded to half-maximal inhibition (IC50). For the same compound, in series [3], the rat_fu is recorded as less than 0.1%.

With `COc1ccc(S(=O)(=O)N(CC(C)C)CC(O)C(Cc2ccc(NCc3ccccc3-c3sc4c(c3C(=O)O)CC(C)(C)CC4(C)C)cc2)NC(=O)OC2COC3(C)OCCC23)cc1` (stereo not drawn) [Compound I-418], in series [1], the rat_CLt turned out to be 1.49 mL/min/kg. In series [2], 2.21 nM corresponded to half-maximal inhibition (IC50). In series [3], the rat_fu is on record as less than 0.1%.

In turn, `COc1ccc(S(=O)(=O)N(CC(C)C)CC(O)C(Cc2ccccc2)NC(=O)OC2COC3(COC(=O)NCc4sc5c(c4C(=O)O)CC(C)(C)CC5)OCCC23)cc1` (stereo not drawn) [Compound I-780] gave a rat_CLt in series [1] of 2.23 mL/min/kg. The same compound had an IC50 in series [2] of 1.64 nM. The rat_fu in series [3] is less than 0.1%.

In turn, `CC(C)CN(CC(O)C(Cc1ccccc1)NC(=O)OC1COC2(C)OCCC12)S(=O)(=O)c1ccc2nc(NCc3ccc(-c4sc5c(c4C(=O)O)CC(C)(C)CC5)cc3)sc2c1` (stereo not drawn) [Compound I-798] returned a rat_CLt in series [1] of 4.54 mL/min/kg. Further, the half-maximal inhibitory concentration (IC50) in series [2] was 0.99 nM. Moreover, the rat_fu in series [3] was less than 0.1%.

Compound `COc1ccc(S(=O)(=O)N(CC(C)C)CC(O)C(Cc2ccc(OCc3ccccc3-n3nc4c(c3C(=O)O)CC(C)(C)CC4)cc2)NC(=O)OC2COC3OCCC23)cc1` (stereo not drawn) [Compound I-807] registered a rat_CLt in series [1] of 0.61 mL/min/kg. This compound also returned an IC50 in series [2] of 0.86 nM. Besides, the rat_fu in series [3] is reported as less than 0.1%.

For `COc1ccc(S(=O)(=O)N(CC(C)C)CC(O)C(Cc2ccc(OCc3ccccc3-c3sc(Cl)c(C4CCCCC4)c3C(=O)O)cc2)NC(=O)OC2COC3OCCC23)cc1` (stereo not drawn) [Compound I-825], in series [1], the rat_CLt was 5.22 mL/min/kg. This compound yielded an IC50 in series [2] of 1.02 nM. The rat_fu in series [3] is recorded as less than 0.1%.

For the compound `COc1ccc(S(=O)(=O)N(CC(C)C)CC(O)C(Cc2ccc(OCc3ccccc3-c3sc4c(c3C(=O)O)CC(C)(C)CC4)cc2)NC(=O)OC2COC3OCCC23)cc1` (stereo not drawn) [Compound I-826], the rat_CLt in series [1] was 0.823 mL/min/kg. This compound had an IC50 in series [2] of 1.18 nM. The rat_fu in series [3] was less than 0.1%.

In series [1], `COc1ccc(S(=O)(=O)N(CC(C)C)CC(O)C(Cc2ccc(OCc3ncccc3-c3sc4c(c3C(=O)O)CC(C)(C)CC4)cc2)NC(=O)OC2COC3OCCC23)cc1` (stereo not drawn) [Compound I-827] had a rat_CLt of 4.21 mL/min/kg. The IC50 in series [2] worked out at 0.81 nM. Further, the rat_fu in series [3] was less than 0.1%.

In series [1], `COc1ccc(S(=O)(=O)N(CC(C)C)CC(O)C(Cc2ccc(OCc3ccccc3-c3sc4c(c3C(=O)O)CCC4)cc2)NC(=O)OC2COC3OCCC23)cc1` (stereo not drawn) [Compound I-832] yielded a rat_CLt of 4.09 mL/min/kg. This compound also gave an IC50 in series [2] of 1.16 nM. For the same compound, in series [3], the rat_fu is on record as less than 0.1%.

In turn, `Cc1cc(Oc2ccc(CC(NC(=O)OC3COC4OCCC34)C(O)CN(CC(C)C)S(=O)(=O)c3ccc4c(c3)OCO4)cc2)ccc1-c1sc2c(c1C(=O)O)CC(C)(C)CC2` (stereo not drawn) [Compound I-835] registered a rat_CLt in series [1] of 1.63 mL/min/kg. In addition, in series [2], the IC50 came out at 2.81 nM. Besides, the rat_fu in series [3] is less than 0.1%.

`COc1ccc(S(=O)(=O)N(CC(C)C)CC(O)C(Cc2ccc(Oc3ccc(-c4sc5c(c4C(=O)O)CC(C)(C)CC5)c(F)c3)cc2)NC(=O)OC2COC3OCCC23)cc1` (stereo not drawn) [Compound I-836]: in series [1], the rat_CLt was found to be 4.31 mL/min/kg. The same compound showed an IC50 in series [2] of 1.76 nM. Moreover, the rat_fu in series [3] is less than 0.1%.

`COc1ccc(S(=O)(=O)N(CC(C)C)CC(O)C(Cc2ccc(OCc3ccccc3-c3ccc4c(c3)C(=O)C(c3ccc(F)cc3)C4=O)cc2)NC(=O)OC2COC3OCCC23)cc1` (stereo not drawn) [Compound I-841] registered a rat_CLt in series [1] of 2.38 mL/min/kg. This compound returned a half-inhibitory concentration (IC50) in series [2] of 2.21 nM. The rat_fu in series [3] is recorded as less than 0.1%.

For the origin of these results see patent US20170253607A1, “LONG-ACTING HIV PROTEASE INHIBITOR” (Shionogi & Co., Ltd., priority 2014, published 2017).
